Results: patent US9890147B2 (BAYER PHARMA AKTIENGESELLSCHAFT, priority 2012, dated 2018)

Tests used:
MOLM-13 cells = test: Cell proliferation assay (alamarBlue), MOLM-13; format: cell-based; conditions: Homo sapiens, 96 hours incubation, inhibition of cell proliferation
Method in brief: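 IC50 = concentration giving 50% growth inhibition relative to buffer-treated cells, after subtracting baseline fluorescence taken before dosing. Compound applied at 1E-5 to 1E-8 M for 96 h at 37 °C in RPMI1640 with 10% FCS; alamarBlue signal at 530/590 nm.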

LAPC-4 cells = test: Cell proliferation assay (alamarBlue), LAPC-4; format: cell-based; conditions: Homo sapiens, LAPC4; inhibition of cell proliferation, LAPC-4 (prostate cancer), 1 nM methyltrienolone, 168 hours
Method: (§1) In accordance with the invention, the capability of the substances to inhibit cell proliferation was determined Cell viability was determined using the alamarBlue® reagent (Invitrogen) in a Victor X3 Multilabel Reader (Perkin Elmer). The excitation wavelength was 530 nm and the emission wavelenth […].
The LAPC-4 cells (ATCC, PTA-1441TM) were sown at a concentration of 4000 cells/well in 100 μl growth medium (RPMI1640, 2 mM L-glutamine, 10% cFCS) on 96-well microtitre plates. A day later, the LAPC-4 cells were treated with 1 nM methyltrienolone and various substance dilutions.
(§2) After an overnight incubation at 37° C., the fluorescence values (CI values) were determined. The plates were then treated with various substance dilutions (1E-5 M, 3E-6 M, 1E-6M, 3E-7 M, 1E-7 M, 3E-8 M, 1E-8 M) and incubated at 37° C. for 72 (MV4-11-, LOX-IMVI cells), 96 (MOLM-13-, B16F10-, MDA-MB-431-, Caov-3 cells), 120 (MOLP-8-, KMS-12-PE cells) or 168 (LAPC-4 cells) hours. The fluorescence values (CO values) were then determined. For the data analysis, the CI values were subtracted from the CO values and the results were compared between cells treated with different dilutions of the substance or with buffer solution only. These were used to calculate the IC 50 values (substance concentration required for 50% inhibition of cell proliferation).

MDA-MB-231 cells = test: Cell proliferation assay (alamarBlue), MDA-MB-231; format: cell-based; conditions: Homo sapiens; inhibition of cell proliferation, MDA-MB-231 (breast carcinoma), 96 hours
Method: as §1
The MDA-MB-231 cells (DSMZ, ACC 732) were sown at a concentration of 4000 cells/well in 100 μl growth medium (DMEM/Ham's F12 medium, 10% FCS) on 96-well microtitre plates. The Caov-3 cells (ATCC, HTB-75) were sown at a concentration of 2000 cells/well in 100 μl growth medium (MEM Earle's medium, 10% FCS) on 96-well microtitre plates.
as §2

BRD4 (BD1) = biological target: T1, BRD4 (BD1) (Homo sapiens, UniProt O60885); test: Binding assay BRD4/acetylated peptide H4 (TR-FRET protein-protein interaction assay)
T1 construct: with relatively long constructs also being possible, preferably amino acids 44-168; made in house; host or cells: E. coli
Method in brief: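 Displacement of biotin-Ac-H4 peptide from His6-tagged BRD4(BD1), final usually 10 nM, read as Eu-streptavidin to anti-His-XL665 TR-FRET (665/620 nm). Compounds tested at 11 doses up to 20 μM in duplicate, pH 7.5 HEPES, 22 °C then 4 °C incubation; IC50 by 4-parameter regression.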

KMS-12-PE cells = test: Cell proliferation assay (alamarBlue), KMS-12-PE; format: cell-based; conditions: Homo sapiens, 120 hours incubation, inhibition of cell proliferation
Method in brief: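 KMS-12-PE myeloma cells in RPMI1640 with 20% FCS were exposed to compound (1E-5 to 1E-8 M) for 120 h at 37° C. AlamarBlue fluorescence (ex 530, em 590 nm) read before and after treatment; the difference versus buffer-treated cells gave IC50.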

MOLP-8 cells = test: Cell proliferation assay (alamarBlue), MOLP-8; format: cell-based; conditions: Homo sapiens, 120 hours incubation, inhibition of cell proliferation
Method in brief: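 MOLP-8 cells in RPMI1640 with 20% FCS, 4000 cells/well, treated overnight after seeding with substance at 1E-5 to 1E-8 M for 120 h at 37° C. Viability read by alamarBlue fluorescence (ex 530, em 590); pre-treatment values subtracted, compared with buffer-only cells to derive IC50.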

Caov-3 cells = test: Cell proliferation assay (alamarBlue), Caov-3; format: cell-based; conditions: Homo sapiens; inhibition of cell proliferation, Caov-3 (ovarian carcinoma), 96 hours
Method in brief: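 Caov-3 (MEM Earle's, 10% FCS, 2000 cells/well) and MDA-MB-231 (DMEM/Ham's F12, 10% FCS, 4000 cells/well) were treated after overnight attachment with 1E-5 to 1E-8 M compound. Caov-3 exposure was 96 h. alamarBlue fluorescence (ex 530, em 590 nm) was read after background subtraction of day-0 values, and IC50 calculated versus buffer-treated cells.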

MV4-11 cells = test: Cell proliferation assay (alamarBlue), MV4-11; format: cell-based; conditions: Homo sapiens, 72 hours incubation, inhibition of cell proliferation
Method in brief: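 Cells seeded at 5000/well in RPMI1640 + 10% FCS, incubated overnight at 37° C, then treated with compound (1E-5 to 1E-8 M) for 72 h at 37° C. Viability by alamarBlue fluorescence (ex 530/em 590 nm); pre-treatment readings subtracted, IC50 derived versus buffer-treated cells.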

B16F10 cells = test: Cell proliferation assay (alamarBlue), B16F10; format: cell-based; conditions: Mus musculus, B16-F10, 96 hours incubation, inhibition of cell proliferation
Method in brief: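 alamarBlue fluorescence (ex 530/em 590 nm) read after overnight seeding at 300-500 cells/well in DMEM + 10% FCS, then after 96 h at 37 °C with compound at 1E-8 to 1E-5 M. Baseline subtracted from endpoint, compared with buffer-treated cells; IC50 = concentration giving 50% proliferation inhibition.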

LOX-IMVI cells = test: Cell proliferation assay (alamarBlue), LOX-IMVI; format: cell-based; conditions: Homo sapiens, 72 hours incubation, inhibition of cell proliferation
Method in brief: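 alamarBlue fluorescence (530 nm excitation, 590 nm emission) measured before dosing and after 72 h at 37° C exposure to 1E-5–1E-8 M compound; 1000 cells/well plated in RPMI1640/10% FCS the night before. IC50 from baseline-corrected signal relative to buffer-treated wells.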

Row | Compound | IC50 (MOLM-13 cells) [µM] | IC50 (MDA-MB-231 cells) [µM] | IC50 (BRD4 (BD1)) [µM] | IC50 (MV4-11 cells) [µM] | IC50 (B16F10 cells) [µM] | IC50 (LAPC-4 cells) [µM] | IC50 (KMS-12-PE cells) [µM] | IC50 (MOLP-8 cells) [µM] | IC50 (Caov-3 cells) [µM] | IC50 (LOX-IMVI cells) [µM]
1 | CNC(=O)N1N=C(c2ccc(-c3c(C)noc3C)cc2)c2cc(OC)c(OC)cc2CC1C (racemic) [Example 2, (±)-1-[4-(3,5-Dimethyl-4-isoxazolyl)phenyl]-7,8-dimethoxy-N,4-dimethyl-4,5-dihydro-3H-2,3-benzodiazepine-3-carboxamide] | 0.17 | 0.31 | 0.08 | 0.11 | 0.18 | 0.24 | 0.09 | 0.12 | 0.31 | 0.43
2 | CNC(=O)N1N=C(c2ccc(Cl)cc2)c2cc(OC(F)(F)F)ccc2C[C@@H]1C [Example 1.1, (4S)-1-(4-Chlorophenyl)-N,4-dimethyl-8-(trifluoromethoxy)-4,5-dihydro-3H-2,3-benzodiazepine-3-carboxamide] | 0.39 | 0.53 | 0.06 |  | 0.39 | 0.6 |  | 0.51 |  | 
3 | CNC(=O)N1N=C(c2ccc(-c3cccnc3Cl)cc2)c2cc(OC)c(OC)cc2CC1C (racemic) [Example 4, (±)-1-[4-(2-chloropyridin-3-yl)phenyl]-7,8-dimethoxy-N,4-dimethyl-4,5-dihydro-3H-2,3-benzodiazepine-3-carboxamide] | 0.19 | 0.17 | 0.08 | 0.12 | 0.11 | 0.09 | 0.11 | 0.17 | 0.32 | 0.45
4 | CNC(=O)N1N=C(c2ccc(-c3c(C)noc3C)cc2)c2cc(OC)c(OC)cc2C[C@@H]1C [Example 2.2, (4S)-1-[4-(3,5-Dimethyl-4-isoxazolyl)phenyl]-7,8-dimethoxy-N,4-dimethyl-4,5-dihydro-3H-2,3-benzodiazepine-3-carboxamide] | 0.13 | 0.2 | 0.06 | 0.1 | 0.11 | 0.09 | 0.11 | 0.12 | 0.25 | 0.33
5 | CNC(=O)N1N=C(c2ccc(-c3cc[nH]n3)cc2)c2cc(OC)c(OC)cc2CC1C (racemic) [Example 3, (±)-7,8-Dimethoxy-N,4-dimethyl-1-[4-(1H-pyrazol-3-yl)phenyl]-4,5-dihydro-3H-2,3-benzodiazepine-3-carboxamide] | 0.24 | 0.21 | 0.05 | 0.26 | 0.11 | 0.11 | 0.23 | 0.28 | 0.55 | 0.95

The next lines start with results.

Row | IC50 (MOLM-13 cells) [µM] | IC50 (MDA-MB-231 cells) [µM] | IC50 (BRD4 (BD1)) [µM] | IC50 (MV4-11 cells) [µM] | IC50 (B16F10 cells) [µM] | Compound | IC50 (LAPC-4 cells) [µM] | IC50 (KMS-12-PE cells) [µM] | IC50 (MOLP-8 cells) [µM] | IC50 (Caov-3 cells) [µM] | IC50 (LOX-IMVI cells) [µM]
6 | 0.07 | 0.14 | 0.02 | 0.05 | 0.1 | CNC(=O)N1N=C(c2ccc(N3CCC(O)CC3)cc2)c2cc(OC)c(OC)cc2C[C@@H]1C [Example 130.1, (4S)-1-[4-(4-hydroxypiperidin-1-yl)phenyl]-7,8-dimethoxy-N,4-dimethyl-4,5-dihydro-3H-2,3-benzodiazepine-3-carboxamide] | 0.05 | 0.07 | 0.05 | 0.003 | 0.19
7 | 0.96 | 1.28 | 0.12 | 0.76 | 0.79 | CNC(=O)N1N=C(c2ccc(N3CCOCC3=O)cc2)c2cc(OC)c(OC)cc2C[C@@H]1C [Example 40.1, (4S)-7,8-dimethoxy-N,4-dimethyl-1-[4-(3-oxomorpholin-4-yl)phenyl]-4,5-dihydro-3H-2,3-benzodiazepine-3-carboxamide] | 0.29 | 0.08 | 0.59 |  | 0.33
8 | 0.31 | 0.26 | 0.16 |  | 0.27 | CNC(=O)N1N=C(c2ccc(Cl)cc2)c2cc(-c3ccc(S(=O)(=O)NC)cc3)ccc2CC1C (racemic) [Example 10, (±)-1-(4-chlorophenyl)-N,4-dimethyl-8-{4-[(methylamino)sulphonyl]phenyl}-4,5-dihydro-3H-2,3-benzodiazepine-3-carboxamide] | 0.12 |  |  |  | 
